Laboratory results from ChEMBL document CHEMBL1147662, “Biarylaniline phenethanolamines as potent and selective beta3 adrenergic receptor agonists” (J Med Chem, 2006).
Blank lines part the entries; values can stand above or below the compound they belong to.

What was measured:
[1] = biological target: T1, Beta-1 adrenergic receptor (Homo sapiens, UniProt P08588)
Description: Activity at human beta-1 adrenergic receptor expressed in CHO cells by stimulation of cAMP production

[2] = biological target: T2, Beta-2 adrenergic receptor (Homo sapiens, UniProt P07550)
Description: Activity at human beta-2 adrenergic receptor expressed in CHO cells by stimulation of cAMP production

[3] = Clearance in Beagle dog; assay type: ADME, organism-based, Canis lupus familiaris; conditions: in vivo
[4] = Bioavailability in Beagle dog; assay type: ADME, organism-based, Canis lupus familiaris; conditions: in vivo
[5] = Half life in po dosed Beagle dog; assay type: ADME, organism-based, Canis lupus familiaris; conditions: in vivo
[6] = Volume of distribution in Beagle dog; assay type: ADME, organism-based, Canis lupus familiaris; conditions: in vivo, read-out: Vss
[7] = biological target: Beta-3 adrenergic receptor (Homo sapiens, UniProt P13945)
Beta-3 adrenergic receptor, sequence (P13945 whole entry): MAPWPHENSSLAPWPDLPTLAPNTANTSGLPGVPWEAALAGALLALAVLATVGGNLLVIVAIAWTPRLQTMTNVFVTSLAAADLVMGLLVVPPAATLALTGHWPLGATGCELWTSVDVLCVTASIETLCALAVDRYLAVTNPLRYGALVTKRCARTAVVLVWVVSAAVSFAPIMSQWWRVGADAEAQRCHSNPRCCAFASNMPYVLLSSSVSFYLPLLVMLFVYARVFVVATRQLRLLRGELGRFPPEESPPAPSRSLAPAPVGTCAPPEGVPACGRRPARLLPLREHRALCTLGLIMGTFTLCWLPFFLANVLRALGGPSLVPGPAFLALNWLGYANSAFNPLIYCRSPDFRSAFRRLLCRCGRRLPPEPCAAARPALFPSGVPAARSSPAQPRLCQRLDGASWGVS
Description: Activity at human beta-3 adrenergic receptor expressed in CHO cells by stimulation of cAMP production

[8] = AUC(0-infinity) in po dosed Beagle dog; assay type: ADME, organism-based, Canis lupus familiaris; design: time infinity, route oral; conditions: plasma
[9] = test system: Mus musculus; experiment: Decrease in glycosylated hemoglobin in db/db mouse at 10 mg/kg, po after 14 days; assay type: functional; design: scale not given: the % may be the effect or the level left
[10] = Half life in Beagle dog at 0.2 mg/kg, iv; assay type: ADME, organism-based, Canis lupus familiaris; design: dose 0.2 mg/kg, route intravenous; conditions: in vivo
[11] = biological target: T1, Beta-1 adrenergic receptor; experiment: Displacement of [125I]cyanopindolol from human cloned beta-1 adrenergic receptor expressed in Sf9 cells
[12] = test system: Mus musculus; experiment: Increase of thermogenic activity in CD1 mouse at 30 mg/kg; assay type: functional, organism-based; design: dose 30 mg/kg
[13] = test system: Mus musculus; experiment: Decrease in plasma insulin level in db/db mouse at 30 mg/kg, po after 14 days; assay type: functional
[14] = biological target: Beta-2 adrenergic receptor and beta-3 adrenergic receptor (Homo sapiens, UniProt P07550+P13945); experiment: Ratio of pEC50 for human beta-3 adrenergic receptor to pKi for human beta2 adrenergic receptor; assay type: functional
[15] = Half life in iv dosed cynomolgus monkey; assay type: ADME, organism-based, Macaca fascicularis; conditions: in vivo
[16] = Volume of distribution in Wistar Han rat at 1 mg/kg, iv or 1 mg/kg, po; assay type: ADME, organism-based; conditions: in vivo, read-out: Vss
[17] = Half life in po dosed cynomolgus monkey; assay type: ADME, organism-based, Macaca fascicularis; conditions: in vivo
[18] = test system: Mus musculus; experiment: Increase of thermogenic activity in CD1 mouse at 3 mg/kg; assay type: functional, organism-based; design: dose 3 mg/kg
[19] = test system: Mus musculus; experiment: Decrease in plasma glucose level in db/db mouse at 100 mg/kg, po after 14 days; assay type: functional
[20] = Volume of distribution in cynomolgus monkey; assay type: ADME, organism-based, Macaca fascicularis; conditions: in vivo, read-out: Vss
[21] = Half life in Wistar Han rat at 1 mg/kg, iv; assay type: ADME, organism-based; design: dose 1 mg/kg, route intravenous; conditions: in vivo
[22] = test system: Mus musculus; experiment: Increase of thermogenic activity in CD1 mouse at 10 mg/kg; assay type: functional, organism-based; design: dose 10 mg/kg
[23] = Renal clearance in Wistar Han rat at 1 mg/kg, iv or 1 mg/kg, po; assay type: ADME, organism-based, Kidney; conditions: in vivo, read-out: CL_renal
[24] = test system: Mus musculus; experiment: Decrease in plasma glucose level in db/db mouse at 30 mg/kg, po after 14 days; assay type: functional
[25] = test system: Mus musculus; experiment: Decrease in glycosylated hemoglobin in db/db mouse at 100 mg/kg, po after 14 days; assay type: functional; design: scale not given: the % may be the effect or the level left
[26] = test system: Mus musculus; experiment: Decrease in plasma insulin level in db/db mouse at 100 mg/kg, po after 14 days; assay type: functional
[27] = test system: Mus musculus; experiment: Decrease in glycosylated hemoglobin in db/db mouse at 30 mg/kg, po after 14 days; assay type: functional; design: scale not given: the % may be the effect or the level left
[28] = Clearance in cynomolgus monkey; assay type: ADME, organism-based, Macaca fascicularis; conditions: in vivo
[29] = test system: Mus musculus; experiment: Decrease in plasma insulin level in db/db mouse at 10 mg/kg, po after 14 days; assay type: functional
[30] = Clearance in Wistar Han rat at 1 mg/kg, iv or 1 mg/kg, po; assay type: ADME, organism-based; conditions: in vivo
[31] = test system: Mus musculus; experiment: Decrease in plasma glucose level in db/db mouse at 10 mg/kg, po after 14 days; assay type: functional
[32] = Renal clearance in Beagle dog; assay type: ADME, organism-based, Canis lupus familiaris, Kidney; conditions: in vivo, read-out: CL_renal
[33] = Half life in Wistar Han rat at 1 mg/kg, po; assay type: ADME, organism-based; design: dose 1 mg/kg, route oral; conditions: in vivo
[34] = Bioavailability in Wistar Han rat at 1 mg/kg, po and 1 mg/kg, iv; assay type: ADME, organism-based; conditions: in vivo
[35] = biological target: T2, Beta-2 adrenergic receptor; experiment: Displacement of [125I]cyanopindolol from human cloned beta-2 adrenergic receptor expressed in Sf9 cells
[36] = test system: Mus musculus; experiment: Decrease in plasma insulin level in db/db mouse at 1 mg/kg, po after 14 days; assay type: functional
[37] = test system: Mus musculus; experiment: Decrease in plasma glucose level in db/db mouse at 1 mg/kg, po after 14 days; assay type: functional
[38] = test system: Mus musculus; experiment: Decrease in glycosylated hemoglobin in db/db mouse at 0.1 mg/kg, po after 14 days; assay type: functional; design: scale not given: the % may be the effect or the level left
[39] = test system: Mus musculus; experiment: Decrease in plasma glucose level in db/db mouse at 0.01 mg/kg, po after 14 days; assay type: functional
[40] = test system: Mus musculus; experiment: Decrease in plasma glucose level in db/db mouse at 0.1 mg/kg, po after 14 days; assay type: functional
[41] = test system: Mus musculus; experiment: Decrease in plasma insulin level in db/db mouse at 0.1 mg/kg, po after 14 days; assay type: functional
[42] = test system: Mus musculus; experiment: Decrease in plasma insulin level in db/db mouse at 0.01 mg/kg, po after 14 days; assay type: functional
[43] = test system: Mus musculus; experiment: Decrease in glycosylated hemoglobin in db/db mouse at 0.01 mg/kg, po after 14 days; assay type: functional; design: scale not given: the % may be the effect or the level left
[44] = test system: Mus musculus; experiment: Decrease in glycosylated hemoglobin in db/db mouse at 1 mg/kg, po after 14 days; assay type: functional; design: scale not given: the % may be the effect or the level left
[45] = test system: Mus musculus; experiment: Decrease in glycosylated hemoglobin in db/db mouse at 3 mg/kg, po after 14 days; assay type: functional; design: scale not given: the % may be the effect or the level left
[46] = test system: Mus musculus; experiment: Decrease in plasma glucose level in db/db mouse at 0.03 mg/kg, po after 14 days; assay type: functional
[47] = test system: Mus musculus; experiment: Decrease in plasma insulin level in db/db mouse at 3 mg/kg, po after 14 days; assay type: functional
[48] = test system: Mus musculus; experiment: Decrease in glycosylated hemoglobin in db/db mouse at 0.03 mg/kg, po after 14 days; assay type: functional; design: scale not given: the % may be the effect or the level left
[49] = test system: Mus musculus; experiment: Decrease in plasma glucose level in db/db mouse at 3 mg/kg, po after 14 days; assay type: functional
[50] = test system: Mus musculus; experiment: Decrease in plasma insulin level in db/db mouse at 0.03 mg/kg, po after 14 days; assay type: functional
[51] = test system: Mus musculus; experiment: Decrease in glycosylated hemoglobin in db/db mouse at 0.3 mg/kg, po after 14 days; assay type: functional; design: scale not given: the % may be the effect or the level left
[52] = test system: Mus musculus; experiment: Decrease in plasma insulin level in db/db mouse at 0.3 mg/kg, po after 14 days; assay type: functional
[53] = test system: Mus musculus; experiment: Decrease in plasma glucose level in db/db mouse at 0.3 mg/kg, po after 14 days; assay type: functional

T2 sequence (P07550 whole entry): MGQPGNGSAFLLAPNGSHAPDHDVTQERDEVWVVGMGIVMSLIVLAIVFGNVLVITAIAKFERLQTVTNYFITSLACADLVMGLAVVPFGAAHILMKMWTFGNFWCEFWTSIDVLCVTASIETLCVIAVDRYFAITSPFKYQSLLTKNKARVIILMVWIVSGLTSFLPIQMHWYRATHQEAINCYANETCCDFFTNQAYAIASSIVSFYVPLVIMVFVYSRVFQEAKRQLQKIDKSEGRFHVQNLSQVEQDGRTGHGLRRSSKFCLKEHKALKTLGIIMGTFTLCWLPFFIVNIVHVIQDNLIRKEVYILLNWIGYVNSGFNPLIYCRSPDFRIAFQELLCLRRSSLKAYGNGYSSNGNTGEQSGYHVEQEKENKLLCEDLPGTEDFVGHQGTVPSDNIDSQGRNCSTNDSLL
T1 sequence (P08588 whole entry): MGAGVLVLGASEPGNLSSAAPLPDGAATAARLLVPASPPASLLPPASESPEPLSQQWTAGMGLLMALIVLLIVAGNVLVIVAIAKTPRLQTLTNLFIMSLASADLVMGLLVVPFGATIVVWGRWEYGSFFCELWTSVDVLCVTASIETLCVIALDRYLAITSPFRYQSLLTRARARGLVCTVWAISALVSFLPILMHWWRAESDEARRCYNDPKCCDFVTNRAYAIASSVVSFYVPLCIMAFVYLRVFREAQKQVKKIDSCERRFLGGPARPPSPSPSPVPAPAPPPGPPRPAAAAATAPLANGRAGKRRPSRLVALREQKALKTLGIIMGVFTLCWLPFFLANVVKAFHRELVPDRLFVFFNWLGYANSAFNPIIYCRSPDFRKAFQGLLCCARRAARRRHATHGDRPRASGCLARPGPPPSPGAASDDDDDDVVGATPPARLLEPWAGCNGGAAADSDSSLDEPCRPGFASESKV

Compound: COC(=O)c1cccc(-c2cccc(NCCNC[C@H](O)c3cccc(Cl)c3)c2)c1
EC50 [1]: 1260 nM
EC50 [2]: 501 nM
EC50 [7]: 158 nM

Compound: O=C(O)c1cccc(-c2cccc(NCCNC[C@H](O)c3cccc(Cl)c3)c2)n1
EC50 [1]: 5010 nM
EC50 [2]: 10000 nM
EC50 [7]: 39.8 nM

Compound: C[C@H](CNc1cccc(-c2ccc(C(=O)O)cc2C(=O)O)c1)NC[C@H](O)c1cccc(Cl)c1
EC50 [1]: 2510 nM
EC50 [2]: > 10000 nM
clearance [3]: 9.3 mL/min/kg
Vd [6]: 0.99 L/kg
EC50 [7]: 0.2 nM

Compound: O=C(O)c1cncc(-c2cccc(NCCNC[C@H](O)c3cccc(Cl)c3)c2)c1
EC50 [1]: 3160 nM
EC50 [2]: 3980 nM
EC50 [7]: 63.1 nM

Compound: O=C(O)c1cccc(-c2cccc(NCCNC[C@H](O)c3cccc(Cl)c3)c2)c1 [SOLABEGRON]
Activity [9]: 7.3%
half-life [10]: 198 min
Ki [11]: 398 nM
Activity [12]: Dose-dependent effect
Activity [13]: 4.4 ng/mL
EC50 [1]: 3980 nM
Ratio [14]: 398
half-life [15]: 270 min
EC50 [2]: 1260 nM
clearance [3]: 2.4 mL/min/kg
Vd [16]: 1.3 L/kg
half-life [17]: 312 min
Activity [18]: Dose-dependent effect
plasma glucose [19]: 185 mg/dL
Vd [20]: 0.556 L/kg
bioavailability [4]: 43%
half-life [21]: 126 min
Activity [22]: Dose-dependent effect
half-life [5]: 300 min
Vd [6]: 0.34 L/kg
EC50 [7]: 3.98 nM
CL renal [23]: 0.16 mL/min/kg
plasma glucose [24]: 207 mg/dL
Activity [25]: 7.06%
Activity [26]: 0.9 ng/mL
Activity [27]: 7.6%
clearance [28]: 5.5 mL/min/kg
Activity [29]: 6.3 ng/mL
clearance [30]: 18.1 mL/min/kg
AUC(0-inf) [8]: 595 ng·h/mL
plasma glucose [31]: 384 mg/dL
CL renal [32]: 20.2 mL/day/kg
half-life [33]: 180 min
bioavailability [34]: 30%
Ki [35]: 1580 nM

Compound: C[C@H](CNc1cccc(-c2ccc(C(=O)O)cc2)c1)NC[C@H](O)c1cccc(Cl)c1
EC50 [1]: 794 nM
EC50 [2]: 1580 nM
EC50 [7]: 31.6 nM

Compound: O=C(O)c1ccncc1-c1cccc(NCCNC[C@H](O)c2cccc(Cl)c2)c1
EC50 [1]: 10000 nM
Activity [36]: 1.4 ng/mL
plasma glucose [37]: 180 mg/dL
EC50 [2]: > 10000 nM
clearance [3]: 5.64 mL/min/kg
Activity [38]: 5%
bioavailability [4]: 27%
half-life [5]: 102 min
Vd [6]: 0.33 L/kg
plasma glucose [39]: 351 mg/dL
EC50 [7]: 0.1 nM
plasma glucose [40]: 181 mg/dL
Activity [41]: 2.8 ng/mL
Activity [42]: 11.4 ng/mL
Activity [43]: 5.6%
AUC(0-inf) [8]: 161 ng·h/mL
Activity [44]: 4.8%

More lines, main results first:

EC50 [1]: 794 nM
EC50 [2]: 631 nM
clearance [3]: 7.1 mL/min/kg
bioavailability [4]: 37%
half-life [5]: 144 min
Vd [6]: 1.37 L/kg
EC50 [7]: 1.58 nM
AUC(0-inf) [8]: 173 ng·h/mL
Compound: Cc1ccc(C(=O)O)cc1-c1cccc(NCCNC[C@H](O)c2cccc(Cl)c2)c1

EC50 [1]: 6.31 nM
EC50 [2]: 50.1 nM
clearance [3]: 7.3 mL/min/kg
bioavailability [4]: 28%
half-life [5]: 150 min
Vd [6]: 0.45 L/kg
EC50 [7]: 0.1 nM
AUC(0-inf) [8]: 135 ng·h/mL
Compound: C[C@H](CNc1cccc(-c2cccc(C(=O)O)c2)c1)NC[C@H](O)c1cccc(Cl)c1

EC50 [1]: 794 nM
EC50 [2]: 1580 nM
EC50 [7]: 31.6 nM
Compound: C[C@H](CNc1cccc(-c2ncccc2C(=O)O)c1)NC[C@H](O)c1cccc(Cl)c1

EC50 [1]: 631 nM
EC50 [2]: 1000 nM
clearance [3]: 11.3 mL/min/kg
bioavailability [4]: 40%
half-life [5]: 144 min
Vd [6]: 0.37 L/kg
EC50 [7]: 0.251 nM
AUC(0-inf) [8]: 310 ng·h/mL
Compound: C[C@H](CNc1cccc(-c2ccccc2C(=O)O)c1)NC[C@H](O)c1cccc(Cl)c1
Activity [45]: 5.4%
plasma glucose [46]: 417 mg/dL
Activity [47]: 3 ng/mL
Activity [48]: 7.2%
plasma glucose [49]: 222 mg/dL
Activity [50]: 13.7 ng/mL
Activity [51]: 5.7%
Activity [52]: 6.7 ng/mL
plasma glucose [53]: 238 mg/dL
